Results from patent publication US12600726B2, “Antagonists of the muscarinic acetylcholine receptor M4” (Vanderbilt University, priority 2017, dated 2026).

Tests used:
Mouse M4 = target: T1, Mouse M4 (Mus musculus, UniProt P32211); assay: mAChR M4 cell-based functional calcium flux assay (mouse M4/Gqi5/CHO cells); settings: for Emin (mouse M4): % ACh maximum at 30 μM
T1 construct: expressed in transfected cells; host or cells: CHO-K1 (ATCC), stably expressing M4 and Gqi5
T1 sequence (P32211 1-479): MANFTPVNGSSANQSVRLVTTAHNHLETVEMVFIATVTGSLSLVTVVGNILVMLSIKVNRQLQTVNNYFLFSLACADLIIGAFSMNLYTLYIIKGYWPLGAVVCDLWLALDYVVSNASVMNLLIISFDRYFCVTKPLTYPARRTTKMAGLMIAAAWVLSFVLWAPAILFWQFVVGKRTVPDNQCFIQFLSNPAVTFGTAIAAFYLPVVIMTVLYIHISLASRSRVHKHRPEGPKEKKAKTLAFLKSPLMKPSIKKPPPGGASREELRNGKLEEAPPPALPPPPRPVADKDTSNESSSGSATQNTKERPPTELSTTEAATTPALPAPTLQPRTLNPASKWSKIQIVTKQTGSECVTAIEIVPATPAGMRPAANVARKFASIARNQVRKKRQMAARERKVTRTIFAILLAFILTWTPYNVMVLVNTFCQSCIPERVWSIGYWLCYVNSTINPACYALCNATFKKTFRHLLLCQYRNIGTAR
Description: Human, rat, or mouse M4. cDNA, along with the chimeric G protein Gqi5, were transfected into Chinese hamster ovary (CHO-K1) cells purchased from the American Type Culture Collection using Lipofectamine2000. M4/Gqi5/CHO cells were grown in Ham's F-12 medium containing 10% heat-inactivated fetal bovine serum (FBS), 20 mM HEPES, 500 μg/mL G418 sulfate, and 200 μg/mL Hygromycin B.
For high throughput measurement of agonist-evoked increases in intracellular calcium, CHO-K1 cells stably expressing muscarinic receptors were plated in growth medium lacking G418 and hygromycin at 15,000 cells/20 μL/well in Greiner 384-well black-walled, tissue culture (TC)-treated, clear-bottom plates (VWR). Cells were incubated overnight at 37° C. and 5% CO2. The next day, cells were washed using an ELX 405 (BioTek) with assay buffer; the final volume was then aspirated to 20 μL. Next, 20 μL of a 2.3 μM stock of Fluo-4/acetoxymethyl ester (Invitrogen, Carlsbad, CA), prepared as a 2.3 mM stock in DMSO and mixed in a 1:1 ratio with 10% (w/v) Pluronic F-127 and diluted in assay buffer, was added to the wells and the cell plates were incubated for 50 min at 37° C. and 5% CO2. Dye was removed by washing with the ELX 405 and the final volume was aspirated to 20 μL. Compound master plates were formatted in a 10 point concentration-response curve (CRC) format (1:3 dilutions) in 100% DMSO with a starting concentration of 10 or 1 mM using a BRAVO liquid handler (Agilent). Test compound CRCs were then transferred to daughter plates (240 nL) using the Echo acoustic plate reformatter (Labcyte, Sunnyvale, CA) and then diluted into assay buffer (40 μL) to a 2× stock using a Thermo Fisher Combi (Thermo Fisher Scientific, Waltham, MA).
Calcium flux was measured using the Functional Drug Screening System (FDSS) 6000 or 7000 (Hamamatsu Corporation, Tokyo, Japan) as an increase in the fluorescent static ratio. Compounds were applied to cells (20 μL, 2×) using the automated system of the FDSS at 2 seconds into the protocol and the data were collected at 1 Hz. At 143 s, 10 μL of an EC20 concentration of the muscarinic receptor agonist acetylcholine was added (5×), followed by the addition of 12 μL of an EC80 concentration of acetylcholine at the 268 s time point (5×). Agonist activity was analyzed as a concentration-dependent increase in calcium mobilization upon compound addition. Positive allosteric modulator activity was analyzed as a concentration-dependent increase in the EC20 acetylcholine response. Antagonist activity was analyzed as a concentration-dependent decrease in the EC80 acetylcholine response; for the purposes of the tables herein, an IC50 (inhibitory concentration 50) was calculated as a concentration-dependent decrease of the response elicited by an EC80 concentration of acetylcholine. Concentration-response curves were generated using a four-parameter logistical equation in XLFit curve fitting software (IDBS, Bridgewater, NJ) for Excel (Microsoft, Redmond, WA) or Prism (GraphPad Software, Inc., San Diego, CA) or the Dotmatics software platform (Dotmatics, Bishop's Stortford, UK).
Compounds were synthesized as described above. Activity (IC50 and Emin) was determined in the mAChR M4 cell-based functional assay as described above and the data are shown in Table 2 and Table 3. The compound number corresponds to the compound numbers used in the examples and Tables 1 and 1.1.

[1] = tested on: haloperidol-induced catalepsy; assay: haloperidol-induced catalepsy, a model of parkinsonian motor disability; type: in vivo, mice
Source text: Furthermore, haloperidol-induced catalepsy, a model of parkinsonian motor disability, is reduced in M4 knockout mice as compared to wild-type controls. […] The reversal by scopolamine was uncommonly robust and more pronounced than we observe with agents targeting a number of other targets being evaluated for potential antiparkinsonian effects, including metabotropic glutamate (mGlu) receptors mGlu4 or mGlu5, A2A adenosine receptors, and NMDA receptors. […] Taken together with the extensive studies of M4 modulation of basal ganglia and motor function, these studies provide compelling evidence that M4 is the dominant mAChR subtype involved in the antiparkinsonian effects of non-selective mAChR antagonists and provide support for discovery and development of selective M4 antagonists for treatment of neurodegenerative disease such as PD, dystonia, tardive dyskinesia and other movement disorders.

[2] = decrease of the response to an EC80 concentration of acetylcholine

Row | Emin (mouse M4) (Mouse M4) [%] | IC50 (Mouse M4; [2]) [µM] | IC50 (Mouse M4; in μM, decrease of the EC80 acetylcholine response) [µM] | Compound | reduction of haloperidol-induced catalepsy ([1]; M4 KO mice) | reversal of haloperidol-induced catalepsy ([1]; WT mice)
1 | 17 | 2.82 | – | CC(C)(C)CCN1CCC2(CC1)CC2CNc1ccc2nncn2n1 (stereo not shown) [Compound 104, N-[[6-(3,3-dimethylbutyl)-6-azaspiro[2.5]octan-2-yl]methyl]-[1,2,4]triazolo[4,3-b]pyridazin-6-amine] | – | –
2 | 8 | 1.29 | – | CC(C)(C)CCN1CCC2(CC1)CC2CNc1ccc2nccn2n1 (stereo not shown) [Compound 102, N-[[6-(3,3-dimethylbutyl)-6-azaspiro[2.5]octan-2-yl]methyl]imidazo[1,2-b]pyridazin-6-amine] | – | –

Second part, the compound before the results:

Row | Compound | Emin (mouse M4) (Mouse M4) [%] | IC50 (Mouse M4; [2]) [µM] | IC50 (Mouse M4; in μM, decrease of the EC80 acetylcholine response) [µM] | reduction of haloperidol-induced catalepsy ([1]; M4 KO mice) | reversal of haloperidol-induced catalepsy ([1]; WT mice)
3 | CC(C)(C)CCN1CCC2(CC1)CC2CNc1ccc(N2CCCCC2)nn1 (stereo not shown) [Compound 78, N-[[6-(3,3-dimethylbutyl)-6-azaspiro[2.5]octan-2-yl]methyl]-6-(1-piperidyl)pyridazin-3-amine] | 8 | 1.24 | – | – | –
4 | CN1[C@@H]2C[C@@H](OC(=O)[C@H](CO)c3ccccc3)C[C@H]1[C@@H]1O[C@@H]12 [scopolamine] | – | – | – | ineffective | completely reversed
5 | c1cc2nncn2nc1NCC1CC12CCN(CC1CCCCC1)CC2 (stereo not shown) [Compound 105, N-[[6-(cyclohexylmethyl)-6-azaspiro[2.5]octan-2-yl]methyl]-[1,2,4]triazolo[4,3-b]pyridazin-6-amine] | 37 | – | > 10 | – | –
